{
  "source": "patent US11446287B2",
  "about": "“Compounds and methods for EP300 or CBP modulation and indications therefor” (Opna Immuno-Oncology SA, priority 2019, dated 2022)",
  "data": [
    {"target": "T1, Recombinant human BRD4 containing dual bromodomains (BRD4-BD12 (1-477)) (Homo sapiens, UniProt O60885)", "T1 construct": "Recombinant human BRD4 containing dual bromodomains (BRD4-BD12 (1-477)); made in house; host or cells: E. coli BL21-CodonPlus (DE3), modified pET vector", "assay": "BRD4 Alphascreen binding assay", "outline": "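AlphaScreen proximity between Ni-chelate-bound BRD4-BD12 (1-477) and streptavidin-captured H4 K5/K8/K12/K16-acetyl peptide measured after 1 h room-temperature compound incubation and 30 min with 7.5 μg/ml beads. Buffer: 50 mM HEPES pH 7.5, 50 mM NaCl, 0.01% BSA, 0.01% Triton X-100; data plate-normalized and four-parameter fit for IC50.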", "units": {"IC50": "µM"}, "values": [
      {"smiles": "CCOc1cc(C(=O)O)cc(OCC)c1-n1cc(CC2CCC2)c2ncc(-n3c(C)nnc3C)cc21", "note": "[P-0270, 4-(3-(cyclobutylmethyl)-6-(3,5-dimethyl-4H-1,2,4-triazol-4-yl)-1H-pyrrolo[3,2-b]pyridin-1-yl)-3,5-diethoxybenzoic acid]", "IC50": "8 to 1000"},
      {"smiles": "CCOc1cc(C(=O)O)cc(OCC)c1-n1cc(C2CCC(F)(F)CC2)c2ncc(-c3c(C)noc3C)cc21", "note": "[P-0271, 4-(3-(4,4-difluorocyclohexyl)-6-(3,5-dimethylisoxazol-4-yl)-1H-pyrrolo[3,2-b]pyridin-1-yl)-3,5-diethoxybenzoic acid]", "IC50": "8 to 1000"},
      {"smiles": "Cc1noc(C)c1-c1cnc2c(c1)c(-c1cnn(CC(=O)O)c1)cn2-c1ncccc1C#CC1CC1", "note": "[P-0272, 2-(4-(1-(3-(cyclopropylethynyl)pyridin-2-yl)-5-(3,5-dimethylisoxazol-4-yl)-1H-pyrrolo[2,3-b]pyridin-3-yl)-1H-pyrazol-1-yl)acetic acid]", "IC50": "8 to 1000"},
      {"smiles": "Cc1noc(C)c1-c1cnc2c(c1)c(-c1ccc(C(=O)O)cc1OC(F)F)cn2-c1ccccc1", "note": "[P-0273, 3-(difluoromethoxy)-4-(5-(3,5-dimethylisoxazol-4-yl)-1-phenyl-1H-pyrrolo[2,3-b]pyridin-3-yl)benzoic acid]", "IC50": "1 to 8"},
      {"smiles": "Cc1noc(C)c1-c1cnc2c(-c3ccccc3)cn(-c3cc(C(=O)O)ccc3OC(F)(F)F)c2c1", "note": "[P-0274, 3-(6-(3,5-dimethylisoxazol-4-yl)-3-phenyl-1H-pyrrolo[3,2-b]pyridin-1-yl)-4-(trifluoromethoxy)benzoic acid]", "IC50": "1 to 8"},
      {"smiles": "Cc1noc(C)c1-c1cnc2c(c1)c(-c1ccc(C(=O)O)cc1OC(C)C)cn2-c1ccccc1", "note": "[P-0275, 4-(5-(3,5-dimethylisoxazol-4-yl)-1-phenyl-1H-pyrrolo[2,3-b]pyridin-3-yl)-3-isopropoxybenzoic acid]", "IC50": "1 to 8"},
      {"smiles": "Cc1noc(C)c1-c1cnc2c(c1)c(-c1ccc(C(=O)O)cc1OC1CCC1)cn2-c1ccccc1", "note": "[P-0276, 3-cyclobutoxy-4-(5-(3,5-dimethylisoxazol-4-yl)-1-phenyl-1H-pyrrolo[2,3-b]pyridin-3-yl)benzoic acid]", "IC50": "1 to 8"},
      {"smiles": "Cc1noc(C)c1-c1cnc2c(c1)c(-c1ccc(C(=O)O)cc1OCC(F)F)cn2-c1ccccc1", "note": "[P-0277, 3-(2,2-difluoroethoxy)-4-(5-(3,5-dimethylisoxazol-4-yl)-1-phenyl-1H-pyrrolo[2,3-b]pyridin-3-yl)benzoic acid]", "IC50": "1 to 8"},
      {"smiles": "Cc1noc(C)c1-c1cnc2c(c1)c(-c1ccc(C(=O)O)cc1OCC(F)(F)F)cn2-c1ccccc1", "note": "[P-0278, 4-(5-(3,5-dimethylisoxazol-4-yl)-1-phenyl-1H-pyrrolo[2,3-b]pyridin-3-yl)-3-(2,2,2-trifluoroethoxy)benzoic acid]", "IC50": "1 to 8"},
      {"smiles": "Cc1noc(C)c1-c1cnc2c(c1)c(-c1ccc(C(=O)O)cc1OC(F)(F)F)cn2-c1ccc(F)cc1", "note": "[P-0279, 4-(5-(3,5-dimethylisoxazol-4-yl)-1-(4-fluorophenyl)-1H-pyrrolo[2,3-b]pyridin-3-yl)-3-(trifluoromethoxy)benzoic acid]", "IC50": "1 to 8"},
      {"smiles": "Cc1noc(C)c1-c1cnc2c(c1)c(-c1cnn(CC(=O)O)c1)cn2C(C1CC1)C1CC1", "note": "[P-0280, 2-(4-(1-(dicyclopropylmethyl)-5-(3,5-dimethylisoxazol-4-yl)-1H-pyrrolo[2,3-b]pyridin-3-yl)-1H-pyrazol-1-yl)acetic acid]", "IC50": "8 to 1000"},
      {"smiles": "Cc1noc(C)c1-c1cnc2c(c1)c(-c1ccc(C(=O)O)cc1OC(F)(F)F)cn2-c1cnc(N2CCC2)nc1", "note": "[P-0281, 4-(1-(2-(azetidin-1-yl)pyrimidin-5-yl)-5-(3,5-dimethylisoxazol-4-yl)-1H-pyrrolo[2,3-b]pyridin-3-yl)-3-(trifluoromethoxy)benzoic acid]", "IC50": "1 to 8"},
      {"smiles": "Cc1noc(C)c1-c1cnc2c(c1)c(-c1ccc(C(=O)O)cc1OC(F)(F)F)cn2-c1ccc(S(C)(=O)=O)cc1", "note": "[P-0282, 4-(5-(3,5-dimethylisoxazol-4-yl)-1-(4-(methylsulfonyl)phenyl)-1H-pyrrolo[2,3-b]pyridin-3-yl)-3-(trifluoromethoxy)benzoic acid]", "IC50": "0.0001 to 1"},
      {"smiles": "Cc1noc(C)c1-c1cnc2c(c1)c(-c1c(Cl)cc(C(=O)O)cc1OC(C)C)cn2C(C1CC1)C1CC1", "note": "[P-0283, 3-chloro-4-(1-(dicyclopropylmethyl)-5-(3,5-dimethylisoxazol-4-yl)-1H-pyrrolo[2,3-b]pyridin-3-yl)-5-isopropoxybenzoic acid]", "IC50": "1 to 8"},
      {"smiles": "Cc1noc(C)c1-c1cnc2c(c1)c(-c1cc(C(=O)O)ccc1OC(F)(F)F)cn2C(C1CC1)C1CC1", "note": "[P-0284, 3-(1-(dicyclopropylmethyl)-5-(3,5-dimethylisoxazol-4-yl)-1H-pyrrolo[2,3-b]pyridin-3-yl)-4-(trifluoromethoxy)benzoic acid]", "IC50": "8 to 1000"},
      {"smiles": "Cc1noc(C)c1-c1cnc2c(c1)c(-c1ccc(C(=O)O)cc1OC(F)(F)F)cn2[C@H]1CCOC1", "note": "[P-0285, (S)-4-(5-(3,5-dimethylisoxazol-4-yl)-1-(tetrahydrofuran-3-yl)-1H-pyrrolo[2,3-b]pyridin-3-yl)-3-(trifluoromethoxy)benzoic acid]", "IC50": "8 to 1000"},
      {"smiles": "Cc1noc(C)c1-c1cnc2c(c1)c(-c1ccc(C(=O)O)cc1OC(F)(F)F)cn2[C@@H]1CCOC1", "note": "[P-0286, (R)-4-(5-(3,5-dimethylisoxazol-4-yl)-1-(tetrahydrofuran-3-yl)-1H-pyrrolo[2,3-b]pyridin-3-yl)-3-(trifluoromethoxy)benzoic acid]", "IC50": "8 to 1000"},
      {"smiles": "CCn1cc(-n2cc(-c3ccc(C(=O)O)cc3OC(F)(F)F)c3cc(-c4c(C)noc4C)cnc32)c(C)n1", "note": "[P-0287, 4-(5-(3,5-dimethylisoxazol-4-yl)-1-(1-ethyl-3-methyl-1H-pyrazol-4-yl)-1H-pyrrolo[2,3-b]pyridin-3-yl)-3-(trifluoromethoxy)benzoic acid]", "IC50": "1 to 8"},
      {"smiles": "Cc1nn(C(F)F)cc1-n1cc(-c2ccc(C(=O)O)cc2OC(F)(F)F)c2cc(-c3c(C)noc3C)cnc21", "note": "[P-0288, 4-(1-(1-(difluoromethyl)-3-methyl-1H-pyrazol-4-yl)-5-(3,5-dimethylisoxazol-4-yl)-1H-pyrrolo[2,3-b]pyridin-3-yl)-3-(trifluoromethoxy)benzoic acid]", "IC50": "1 to 8"},
      {"smiles": "Cc1noc(C)c1-c1cnc2c(c1)c(-c1ccc(C(=O)O)cc1OC(F)(F)F)cn2-c1cnn(C(F)F)c1C", "note": "[P-0289, 4-(1-(1-(difluoromethyl)-5-methyl-1H-pyrazol-4-yl)-5-(3,5-dimethylisoxazol-4-yl)-1H-pyrrolo[2,3-b]pyridin-3-yl)-3-(trifluoromethoxy)benzoic acid]", "IC50": "1 to 8"},
      {"smiles": "Cc1noc(C)c1-c1cnc2c(c1)c(-c1ccc(C(=O)O)cc1OC(F)(F)F)cn2C1CCNCC1", "note": "[P-0290, 4-(5-(3,5-dimethylisoxazol-4-yl)-1-(piperidin-4-yl)-1H-pyrrolo[2,3-b]pyridin-3-yl)-3-(trifluoromethoxy)benzoic acid]", "IC50": "8 to 1000"},
      {"smiles": "CC(=O)N1CCC(n2cc(-c3ccc(C(=O)O)cc3OC(F)(F)F)c3cc(-c4c(C)noc4C)cnc32)CC1", "note": "[P-0291, 4-(1-(1-acetylpiperidin-4-yl)-5-(3,5-dimethylisoxazol-4-yl)-1H-pyrrolo[2,3-b]pyridin-3-yl)-3-(trifluoromethoxy)benzoic acid]", "IC50": "8 to 1000"},
      {"smiles": "Cc1noc(C)c1-c1cnc2c(c1)c(-c1ccc(C(=O)O)cc1OC(F)(F)F)cn2C1CCN(S(C)(=O)=O)CC1", "note": "[P-0292, 4-(5-(3,5-dimethylisoxazol-4-yl)-1-(1-(methylsulfonyl)piperidin-4-yl)-1H-pyrrolo[2,3-b]pyridin-3-yl)-3-(trifluoromethoxy)benzoic acid]", "IC50": "1 to 8"},
      {"smiles": "Cc1noc(C)c1-c1cnc2c(c1)c(-c1ccc(C(=O)O)cc1OC(F)(F)F)cn2-c1ccncc1F", "note": "[P-0293, 4-(5-(3,5-dimethylisoxazol-4-yl)-1-(3-fluoropyridin-4-yl)-1H-pyrrolo[2,3-b]pyridin-3-yl)-3-(trifluoromethoxy)benzoic acid]", "IC50": "1 to 8"},
      {"smiles": "Cc1noc(C)c1-c1cnc2c(c1)c(-c1ccc(C(=O)O)cc1OC(F)(F)F)cn2-c1cnn(CC(C)(C)O)c1", "note": "[P-0294, 4-(5-(3,5-dimethylisoxazol-4-yl)-1-(1-(2-hydroxy-2-methylpropyl)-1H-pyrazol-4-yl)-1H-pyrrolo[2,3-b]pyridin-3-yl)-3-(trifluoromethoxy)benzoic acid]", "IC50": "0.0001 to 1"},
      {"smiles": "CCOc1cc(C(=O)O)ncc1-c1cn(-c2ccc(F)cc2F)c2ncc(-c3c(C)noc3C)cc12", "note": "[P-0295, 5-(1-(2,4-difluorophenyl)-5-(3,5-dimethylisoxazol-4-yl)-1H-pyrrolo[2,3-b]pyridin-3-yl)-4-ethoxypicolinic acid]", "IC50": "1 to 8"},
      {"smiles": "CCOc1c(F)c(C(=O)O)c(F)c(OCC)c1-c1cn(-c2ccc(F)cc2F)c2ncc(-c3c(C)noc3C)cc12", "note": "[P-0296, 4-(1-(2,4-difluorophenyl)-5-(3,5-dimethylisoxazol-4-yl)-1H-pyrrolo[2,3-b]pyridin-3-yl)-3,5-diethoxy-2,6-difluorobenzoic acid]", "IC50": "8 to 1000"},
      {"smiles": "CCOc1cc(C(=O)O)c(F)c(OCC)c1-c1cn(-c2ccc(F)cc2F)c2ncc(-c3c(C)noc3C)cc12", "note": "[P-0297, 4-(1-(2,4-difluorophenyl)-5-(3,5-dimethylisoxazol-4-yl)-1H-pyrrolo[2,3-b]pyridin-3-yl)-3,5-diethoxy-2-fluorobenzoic acid]", "IC50": "8 to 1000"},
      {"smiles": "Cc1noc(C)c1-c1cnc2c(-c3ccccc3)cn(-c3c(OCC(F)(F)F)cc(C(=O)O)cc3OCC(F)(F)F)c2c1", "note": "[P-0298, 4-(6-(3,5-dimethylisoxazol-4-yl)-3-phenyl-1H-pyrrolo[3,2-b]pyridin-1-yl)-3,5-bis(2,2,2-trifluoroethoxy)benzoic acid]", "IC50": "1 to 8"},
      {"smiles": "Cc1noc(C)c1-c1cnc2c(c1)c(-c1ccc(C(=O)O)cc1OC(C)C)cn2-c1cnn(CC(C)(C)O)c1", "note": "[P-0299, 4-(5-(3,5-dimethylisoxazol-4-yl)-1-(1-(2-hydroxy-2-methylpropyl)-1H-pyrazol-4-yl)-1H-pyrrolo[2,3-b]pyridin-3-yl)-3-isopropoxybenzoic acid]", "IC50": "1 to 8"}
    ]}
  ]
}
